Numbering of substitutions follows the chain as printed. Values joined by “and” are separate entries in the source; they are usually repeats but may differ in a detail not shown here. Equal entries are not always repeated. Where two headings read alike, the source gives them in different places.
Columns and labels:
OCT1 Phe244Ala variant [1] = target: T1, OCT1 Phe244Ala variant (Homo sapiens, UniProt O15245, F244A); experiment: Concentration-dependent uptake kinetics, HEK293 cells overexpressing OCT1 Phe244Ala; conditions: for Clint: OCT1 Phe244Ala, ratio of vmax over Km; for Km, Phe244Ala compared to WT / Maximum transport capacity (vmax), Phe244Ala compared to WT: uptake kinetics, in words;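 for all read-outs here: cells exposed to rising substrate concentrations in buffer, intracellular drug measured by HPLC-tandem mass spectrometry, quantified against a standard curve, uptake referenced to empty vector-transfected HEK293 controls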
T1 sequence (O15245 1-554 F244A): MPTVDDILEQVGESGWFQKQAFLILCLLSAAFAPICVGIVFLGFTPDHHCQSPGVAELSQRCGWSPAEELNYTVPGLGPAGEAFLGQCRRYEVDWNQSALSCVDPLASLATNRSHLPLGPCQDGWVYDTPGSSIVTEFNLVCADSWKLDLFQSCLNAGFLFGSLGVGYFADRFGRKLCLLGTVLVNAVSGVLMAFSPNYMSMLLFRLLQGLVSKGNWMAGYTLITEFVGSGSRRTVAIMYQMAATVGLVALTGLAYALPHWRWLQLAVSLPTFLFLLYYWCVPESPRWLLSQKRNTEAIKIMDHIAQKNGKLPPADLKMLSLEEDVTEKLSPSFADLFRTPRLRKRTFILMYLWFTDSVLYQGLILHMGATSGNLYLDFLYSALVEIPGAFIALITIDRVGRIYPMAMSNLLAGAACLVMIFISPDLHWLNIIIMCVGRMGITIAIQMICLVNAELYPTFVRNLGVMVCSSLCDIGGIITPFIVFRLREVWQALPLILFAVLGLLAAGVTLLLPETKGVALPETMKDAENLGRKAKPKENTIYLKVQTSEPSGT

OCT1 WT [2] = target: T2, OCT1 WT (Homo sapiens, UniProt O15245); experiment: Concentration-dependent uptake kinetics, HEK293 cells overexpressing OCT1 WT; conditions: for Clint: OCT1 WT, ratio of vmax over Km
T2 sequence (O15245 1-554): T1 sequence (O15245 1-554 F244A) with A244F

OCT1 WT [3] = target: T2, OCT1 WT; experiment: Uptake screening (transport ratio over empty vector), HEK293 cells overexpressing OCT1 WT; type: cell-based; set-up: expressed in transfected cells;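 note: intracellular substrate levels quantified by HPLC–tandem mass spectrometry after uptake in HBSS+ buffer at 37 °C, stable Flp-In HEK293 lines, fold change versus empty vector–transfected cells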
OCT1 Phe244Ala variant [4] = target: T1, OCT1 Phe244Ala variant; experiment: Uptake screening (transport ratio over empty vector), HEK293 cells overexpressing OCT1 Phe244Ala variant; type: cell-based; set-up: expressed in transfected cells;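 note: stably transfected HEK293 cells, intracellular substrate quantified by HPLC-tandem mass spectrometry in cell lysates, uptake in HBSS+ buffer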
[5] = uptake ratio over empty vector, HEK293 cells overexpressing OCT1 WT
[6] = Phe244Ala uptake relative to OCT1 WT
[7] = uptake ratio over empty vector, HEK293 cells overexpressing OCT1 Phe244Ala
[8] = Phe244Ala uptake relative to WT
[9] = uptake ratio of OCT1 WT-overexpressing HEK293 cells over empty vector
[10] = uptake ratio of OCT1 Phe244Ala-overexpressing HEK293 cells over empty vector

Row | SMILES | Mean_transport_ratio_WT (OCT1 WT [3]; [5]) | relative_Phe244Ala_uptake_in% (OCT1 Phe244Ala variant [4]; [6]) | Mean_transport_ratio_Phe244Ala (OCT1 Phe244Ala variant [4]; [7]) | relative_Phe244Ala_uptake_in% (OCT1 Phe244Ala variant [4]; [8]) | also measured
1 | CCN1CCCC1CNC(=O)c1cc(S(N)(=O)=O)ccc1OC (stereo not drawn) [Sulpiride] |  |  |  |  | vmax (OCT1 Phe244Ala variant [1]): 418 ± 65 pmol × mg protein^−1 × min^−1; Clint (OCT1 Phe244Ala variant [1]): 4.01 ± 3.27 ml × g Protein^−1 × min^−1; vmax (OCT1 WT [2]): 237 ± 49.7 pmol × mg protein^−1 × min^−1; Clint (OCT1 WT [2]): 2.65 ± 3.09 ml × g Protein^−1 × min^−1
2 | NC(N)=Nc1nc(CSCCC(N)=NS(N)(=O)=O)cs1 [Famotidine] |  |  |  |  | Clint (OCT1 Phe244Ala variant [1]): 12.1 ± 19.8 ml × g Protein^−1 × min^−1; Km, Phe244Ala compared to WT (OCT1 Phe244Ala variant [1]): higher Km values; Maximum transport capacity (vmax), Phe244Ala compared to WT (OCT1 Phe244Ala variant [1]): more similar maximum transport capacities; Clint (OCT1 WT [2]): 45.8 ± 45.7 ml × g Protein^−1 × min^−1
3 | Cc1ncc(C[n+]2csc(CCO)c2C)c(N)n1 [Thiamine] | 42.169 | 21.749% | 9.954 |  | Clint (OCT1 Phe244Ala variant [1]): 2.70 ± 5.44 ml × g Protein^−1 × min^−1; Maximum transport capacity (vmax), Phe244Ala compared to WT (OCT1 Phe244Ala variant [1]): reduced transport capacity; Clint (OCT1 WT [2]): 7.51 ± 8.28 ml × g Protein^−1 × min^−1
4 | CN(C)CCc1c[nH]c2ccc(C[C@H]3COC(=O)N3)cc12 [Zolmitriptan] |  |  |  |  | Clint (OCT1 Phe244Ala variant [1]): 13.3 ± 17.5 ml × g Protein^−1 × min^−1; Maximum transport capacity (vmax), Phe244Ala compared to WT (OCT1 Phe244Ala variant [1]): reduced transport capacity; Clint (OCT1 WT [2]): 21.6 ± 26.4 ml × g Protein^−1 × min^−1
5 | CC(CCc1ccc(O)cc1)NCCc1ccc(O)c(O)c1 (stereo not drawn) [Dobutamine] | 6.852 |  | 15.606 | 249.567% | Clint (OCT1 Phe244Ala variant [1]): 7.88 ± 6.38 ml × g Protein^−1 × min^−1; Km, Phe244Ala compared to WT (OCT1 Phe244Ala variant [1]): lower Km values; Clint (OCT1 WT [2]): 3.03 ± 6.16 ml × g Protein^−1 × min^−1
6 | CC(C)(C)NCC(O)COc1cccc2c1CCC(=O)N2 (stereo not drawn) [Carteolol] | 3.378 |  | 8.502 | 315.540% | Clint (OCT1 Phe244Ala variant [1]): 7.82 ± 8.13 ml × g Protein^−1 × min^−1; Clint (OCT1 WT [2]): 1.01 ± 1.41 ml × g Protein^−1 × min^−1; Fold increased uptake rate by Phe244Ala compared to WT (OCT1 Phe244Ala variant [4]; 2.5 μM substrate, 2 min): 3.2 fold
7 | CC(C)[N+](C)(CCOC(=O)C1c2ccccc2Oc2ccccc21)C(C)C [Propanthelin, Propantheline] |  |  |  |  | Clint (OCT1 Phe244Ala variant [1]): 205 ± 124 ml × g Protein^−1 × min^−1; Clint (OCT1 WT [2]): 224 ± 251 ml × g Protein^−1 × min^−1
8 | CC(=O)OC(C)C[N+](C)(C)C (stereo not drawn) [Methacholine, Acetyl-beta-methylcholine] |  |  |  |  | Clint (OCT1 Phe244Ala variant [1]): 3.03 ± 8.29 ml × g Protein^−1 × min^−1; Km, Phe244Ala compared to WT (OCT1 Phe244Ala variant [1]): higher Km values; Maximum transport capacity (vmax), Phe244Ala compared to WT (OCT1 Phe244Ala variant [1]): more similar maximum transport capacities; Clint (OCT1 WT [2]): 14.1 ± 15.2 ml × g Protein^−1 × min^−1; Transport activity of Phe244Ala in % of WT activity (OCT1 Phe244Ala variant [4]; 2.5 μM substrate, 2 min, Phe244Ala uptake relative to WT): ~10%
9 | NC(=Nc1ccccc1)Nc1ccccc1 [Diphenylguanidine] |  |  |  |  | Mean_transport_ratio_WT (OCT1 WT [3]): 2.037; Mean_transport_ratio_Phe244Ala (OCT1 Phe244Ala variant [4]): 1.952; relative_Phe244Ala_uptake_in% (OCT1 Phe244Ala variant [4]): 91.817%
10 | NCC(O)c1ccccc1 (stereo not drawn) [Bisnorephedrine] | 1.295 |  | 1.345 | 116.872% | 
11 | CN(C)CCc1c[nH]c2ccc(Cn3cncn3)cc12 [Rizatriptan] | 7.577 | 26.058% | 2.714 |  | 
12 | CC(C)(C)NCC(O)COc1cccc2c1CC(O)C(O)C2 (stereo not drawn) [Nadolol] |  | 142.415% |  |  | Mean_transport_ratio_WT (OCT1 WT [3]; [9]): 9.921; Mean_transport_ratio_Phe244Ala (OCT1 Phe244Ala variant [4]; [10]): 13.705
13 | COc1ccc2cc3[n+](cc2c1OC)CCc1cc2c(cc1-3)OCO2 [Berberine] | 11.952 |  | 7.924 | 63.219% | 
14 | NCC(O)c1cccc(O)c1 (stereo not drawn) [Norphenylephrine] |  | 40.709% |  |  | Mean_transport_ratio_WT (OCT1 WT [3]; [9]): 2.898; Mean_transport_ratio_Phe244Ala (OCT1 Phe244Ala variant [4]; [10]): 1.772
15 | C[N+]1(C)CCN(c2ccccc2)CC1 [Dimethylphenylpiperazinium] | 34.77 |  | 24.939 | 70.889% | 
16 | CCCC[N+]1(C)[C@@H]2C[C@@H](OC(=O)[C@H](CO)c3ccccc3)C[C@H]1[C@@H]1O[C@@H]12 (stereo partly drawn) [Butylscopolamine] | 24.775 |  | 30.852 | 125.561% | 
17 | NC(N)=NCc1cccc(I)c1 [Metaiodobenzylguanidine] |  | 96.674% |  |  | Mean_transport_ratio_WT (OCT1 WT [3]; [9]): 11.544; Mean_transport_ratio_Phe244Ala (OCT1 Phe244Ala variant [4]; [10]): 11.193
18 | CC(CCc1ccc(O)cc1)NCC(O)c1ccc(O)cc1 (stereo not drawn) [Ractopamine] | 6.92 | 102.038% | 7.041 |  | 

Row | SMILES | Mean_transport_ratio_WT (OCT1 WT [3]; [5]) | relative_Phe244Ala_uptake_in% (OCT1 Phe244Ala variant [4]; [6]) | Mean_transport_ratio_Phe244Ala (OCT1 Phe244Ala variant [4]; [7]) | relative_Phe244Ala_uptake_in% (OCT1 Phe244Ala variant [4]; [8]) | also measured
19 | CC(C)(C)NCC(O)c1ccc(O)c(O)c1 (stereo not drawn) [Colterol] | 5.025 |  | 2.364 | 33.880% | 
20 | COc1ccc(CC(C)(C)NC[C@H](O)c2cc(O)cc3c2OCC(=O)N3)cc1 [Olodaterol] | 6.02 | 139.279% | 7.992 |  | 
21 | NCCc1cccc(O)c1 [m-Tyramine] | 6.001 | 13.730% | 1.687 |  | 
22 | CCNCC(O)c1cccc(O)c1 (stereo not drawn) [Etilefrine] | 6.81 |  | 3.319 | 39.917% | 
23 | COc1ccc2[nH]cc(CCN)c2c1 [5-Methoxytryptamine] |  |  |  |  | Mean_transport_ratio_WT (OCT1 WT [3]): 3.73; Mean_transport_ratio_Phe244Ala (OCT1 Phe244Ala variant [4]): 1.602; relative_Phe244Ala_uptake_in% (OCT1 Phe244Ala variant [4]): 22.030%
24 | CC(C)(C)NCC(O)c1ccc(O)c(CO)c1 (stereo not drawn) [Salbutamol] | 8.785 | 142.307% | 12.079 |  | 
25 | CNC[C@H](O)c1cccc(O)c1 [Phenylephrine] | 9.854 | 29.477% | 3.61 |  | 
26 | CC(=O)Nc1ccc(OCC(O)CNC(C)C)cc1 (stereo not drawn) [Practolol] | 2.092 | 83.607% | 1.913 |  | 
27 | Cc1cc(N)c(OC(C)C)cc1C1CCNCC1 [1380575-45-0] | 4.645 |  | 6.442 | 149.293% | 
28 | CCN(CC)CCNC(=O)c1ccc(NS(C)(=O)=O)cc1 [Sematilid] | 3.577 | 52.483% | 2.352 |  | 
29 | CN1[C@@H]2CC[C@H]1C[C@@H](OC(=O)c1c[nH]c3ccccc13)C2 [Tropisetron] | 2.206 | 47.074% | 1.568 |  | 
30 | CCOC(=O)c1ccc(OC(=O)CCCCCNC(=N)N)cc1 [Gabexate] |  | 112.397% |  |  | Mean_transport_ratio_WT (OCT1 WT [3]; [9]): 1.935; Mean_transport_ratio_Phe244Ala (OCT1 Phe244Ala variant [4]; [10]): 2.051
31 | CC(NCCc1ccc(O)cc1)C(O)c1ccc(O)cc1 (stereo not drawn) [Ritodrine] | 8.916 | 143.135% | 12.33 |  | 
32 | N=C(N)N1CCc2ccccc2C1 [Debrisoquin] | 19.246 |  | 20.768 | 108.342% | 
33 | CC1(C)N=C(N)N=C(N)N1c1ccc(Cl)cc1 [Cycloguanil] | 17.269 |  | 16.588 | 95.814% | 
34 | C[N+]1(C)CCCC(OC(=O)C(O)(c2ccccc2)c2ccccc2)C1 (stereo not drawn) [Mepenzolate] |  | 130.959% and 121.132% |  |  | Mean_transport_ratio_WT (OCT1 WT [3]; [9]): 28.031 and 34.795; Mean_transport_ratio_Phe244Ala (OCT1 Phe244Ala variant [4]; [10]): 36.4 and 41.936
35 | CC[N+](CC)(CC)CC(=O)Nc1c(C)cccc1C [N-Ethyllidocaine] | 41.537 |  | 53.323 | 129.074% | 

Reference: article PMC11602988 (The Journal of Biological Chemistry, 2024)
